Patent US20200247849A1, “PEPTIDE AGONISTS AND ANTAGONISTS OF TLR4 ACTIVATION” (PEPTICOM LTD, priority 2016, published 2020)

Key:
Format in all cases: cell-based
[1] = test system: TLR4 with MD2 or CD14 co-receptor; assay: Reporter gene (SEAP) PAMP assay in NIH3T3 cells expressing TLR4 with MD2 or CD14 co-receptor; conditions: summary of FIGS. 6A-6V; for Co-Receptor/s: co-receptor (MD2/CD14) via which the effect occurs; for Activity: type of effect (activation/inhibition) on TLR4
Excerpt: FIGS. 6A-6V show the dose response inhibitor/activator effects of the designed peptides using a reporter gene assay. The reporter gene assay is composed of NIH3T3 cells transfected with either MD2 or CD14 along with TLR4 and the NF-κB-inducible reporter gene Secreted Alkaline Phosphatase (SEAP) to monitor TLR4 activation (Burger-[…] al. 2010, A new cell-based innate immune receptor assay for the examination of receptor activity, ligand specificity, signaling pathways and the detection of pyrogens. […] The receptors are coupled to for the detection of inhibitory activity, cells were treated with the peptide prior to exposure to LPS and the response to LPS is measured at variable peptide doses (as labeled). The detection of cell activation was performed using the peptide alone, at variable doses, as indicated in the respective graphs. The following presents in more details the experimental procedures. Experimental setup: The cell-based Assay is performed with different NIH3T3 reporter cell lines (NIH 3T3 PRR SEAP-TLR4/CD14 or -TLR4/MD2) and the control cell line NIH 3T3 SEAP. The NIH3T3 SEAP cell line is used in order to determine the background of the alkaline phosphatase expression. It is a cell line stably transfected with only the reporter gene plasmid. For each assay a vial of the master cell bank is revitalized and seeded in a standard cell culture flask (75 cm^2 T-Flask) at day one. Cells are cultured in 20 ml culture media (DMEM supplemented with 10% FCS (heat inactivated), 50 units/ ml penicillin, 0.05 mg/ ml streptomycin and 2 mmol/ L L-glutamine). The cells are cultured at 37° C. in a 5% CO2 humidified atmosphere. At Day 1: For the PAMP Assay cells are seeded in a 96-well plate at a density of 0.3.10^5 cells/well in a final volume of 100 μl culture media (DMEM, 10% FCS (heat inactivated)). To ensure equal culture conditions the 96-well cell culture plates are placed side by side and cultivated in a humidified CO2 incubator (37° C. and 5% CO2). […] After a cultivation period of 24 h the media is removed and replaced with the respective volume of fresh media (DMEM, 0.5% FCS (heat inactivated)).The lyophilized peptides are stored in a freezer at -20° C. upon arrival. For the experiments they are dissolved in DMSO (to the highest possible concentration). Before opening the peptides are allowed to equilibrate to room temperature (in order to reduce the uptake of moisture). For each experiment the stock solution is diluted in DMEM to the appropriate working concentration. […] Sonication was also used to help dissolve the peptides. Immediately after replacing the media, the diluted peptides are applied in a serial dilution to the cells and directly after that the agonist is added to the cells. After adding peptide and […] the final volume in each well of a 96 well plate amounts 100 μl/well. The culture medium containing 0.5% FCS is used as a negative reference item. The induction is performed for 18 h at 37° C. and 5% CO2. At Day 3: To determine the final SEAP value, 50 μl of the supernatant is carefully transferred in a new 96-well plate (Greiner-F-plate) and 50 μl of the substrate (pNPP; p-nitrophenyl phosphate) is added. SEAP catalyzes the hydrolysis of pNPP to the final product para-nitrophenol (yellow) which can be detected by a photometric analysis using an UV-VIS reader at 405 nm. […] The results of FIGS. 6A-6V with respect to peptide activity are summarized in Table 1 above with respect to the type of effect of the respective peptide (activation/inhibition) and with respect to the corresponding co-receptor (MD2/CD14). Data concerning SEQ ID No. 22 with respect to co-receptor CD14 is in preparation.

[2] = test system: Raw 264.7 cells; assay: Raw cells activation, FACS of activation markers CD80, CD40, CD86, MHC-II; conditions: 24 h and 48 h, compared to negative control and other peptides
Procedure: Additional testing was carried out to verify the activation levels if the peptides using expression level of activation markers. Raw cells were activated using the peptides of SEQ ID Nos. 1, 4 and 5 and a control peptide. The analysis of the activation level was done by examining the expression level of few activation markers. In order to verify the obtained results, two repeats were done. Standard Raw cells activation and FACS staining protocol were carried out.
The following describes the experimental design in detail. 5-7.5X10^6 Raw 264.7 cells were seeded in 6-well plates 24 h prior to the stimulation in 3ml/well of DMEM containing 4 mmol/L glutamine and 10% heat-inactivated FCS. At the next day, cells were treated with bacterial LPS (10 or 100 ng/ml, E coli, sigma) as positive control, and with peptides SEQ ID Nos. 1, 4, 5 and the control peptide (50, 100 and 200 μM for each peptide). The volume of the incubation was 1.5 ml for each well. After 24 or 48 h (two experiments), the concentrations of nitrite were measured in the culture supernatant by the Griess assay while absorbance was read at 550 nm. Simultaneously, the cells were stained for surface receptors: CD40, CD80, CD86 and MHC-II with the appropriate antibodies (biolegend) and analysed by flow cytometry using FSC express 3 software. […]

[3] = target: T1, TLR4/MD2 (Homo sapiens, UniProt O00206+Q9Y6Y9); assay: Reporter gene assay, NIH3T3 cells TLR4 with MD2 co-receptor
T1 construct: expressed in transfected cells; host or cells: NIH3T3 (NIH 3T3 PRR SEAP-TLR4/MD2)
Excerpt: FIGS. 6A-6V present peptide activity using NIH3T3 cells that express TLR4, with either the MD2 co-receptor (top) or CD14 co-receptor (bottom), for peptides of SEQ ID Nos. 1-22, respectively, according to some embodiments of the invention. FIGS. 6A-6V show the dose response inhibitor/activator effects of the designed peptides using a reporter gene assay. The reporter gene assay is composed of NIH3T3 cells transfected with either MD2 or CD14 along with TLR4 and the NF-κB-inducible reporter gene Secreted Alkaline Phosphatase (SEAP) to monitor TLR4 activation (Burger-Kentischer et al. 2010, A new cell-based innate immune receptor assay for the examination of receptor activity, ligand specificity, signaling pathways and the detection of pyrogens. J Immunol Methods. 358(1-2): 93-103). […] The receptors are coupled to for the detection of inhibitory activity, cells were treated with the peptide prior to exposure to LPS and the response to LPS is measured at variable peptide doses (as labeled). […]
At Day 3: To determine the final SEAP value, 50 μl of the supernatant is carefully transferred in a new 96-well plate (Greiner-F-plate) and 50 μl of the substrate (pNPP; p-nitrophenyl phosphate) is added. SEAP catalyzes the hydrolysis of pNPP to the final product para-nitrophenol (yellow) which can be detected by a photometric analysis using an UV-VIS reader at 405 nm. […]

T1 sequence (O00206 24-839): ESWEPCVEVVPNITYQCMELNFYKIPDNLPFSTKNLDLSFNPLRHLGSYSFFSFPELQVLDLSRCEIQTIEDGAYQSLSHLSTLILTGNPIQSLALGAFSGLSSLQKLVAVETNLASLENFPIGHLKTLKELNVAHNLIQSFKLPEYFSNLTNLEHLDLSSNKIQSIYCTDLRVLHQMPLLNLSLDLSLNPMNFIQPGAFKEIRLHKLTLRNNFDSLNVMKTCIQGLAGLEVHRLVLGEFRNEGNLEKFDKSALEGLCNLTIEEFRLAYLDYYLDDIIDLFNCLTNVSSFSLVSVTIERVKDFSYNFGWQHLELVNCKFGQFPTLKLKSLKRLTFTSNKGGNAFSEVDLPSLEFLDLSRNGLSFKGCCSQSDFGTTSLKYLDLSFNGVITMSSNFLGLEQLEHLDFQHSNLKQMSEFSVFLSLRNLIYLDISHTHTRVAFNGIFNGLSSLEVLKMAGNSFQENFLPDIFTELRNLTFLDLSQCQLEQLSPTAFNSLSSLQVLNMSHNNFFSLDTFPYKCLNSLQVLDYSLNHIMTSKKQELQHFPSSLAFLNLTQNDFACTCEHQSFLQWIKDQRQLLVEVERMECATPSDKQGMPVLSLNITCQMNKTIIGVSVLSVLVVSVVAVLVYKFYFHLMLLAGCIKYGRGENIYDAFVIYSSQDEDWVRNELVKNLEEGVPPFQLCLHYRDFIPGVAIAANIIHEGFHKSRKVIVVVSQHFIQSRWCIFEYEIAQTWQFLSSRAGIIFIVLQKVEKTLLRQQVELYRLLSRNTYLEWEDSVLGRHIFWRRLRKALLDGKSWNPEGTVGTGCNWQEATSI
T1 sequence (Q9Y6Y9 19-160): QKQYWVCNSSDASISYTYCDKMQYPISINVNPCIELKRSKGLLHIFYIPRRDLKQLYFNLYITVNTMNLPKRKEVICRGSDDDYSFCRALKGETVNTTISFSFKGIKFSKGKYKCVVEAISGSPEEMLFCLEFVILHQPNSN

| activation with respect to MD2 [3] | Substance | Co-Receptor/s [1] | Activity [1] | stimulation of raw cells (expression of activation markers) [2] |
| --- | --- | --- | --- | --- |
|  | LAWYFGRKIKE (Inhibitor) [SEQ ID No. 11] | MD2 | Inhibitor | most promising stimulator |
| weak activator | c[WMLGMESI] (cyclic; Activator, cyclic) [SEQ ID No. 7] | CD14 | Activator |  |
